Converted amounts (≈) assume the structure as drawn. Where two headings read alike, the source gives them in different places.
Legend:
Experiment in all cases: microbe, parasite or virus in culture
Format in all cases: cell-based
Mtb Praha 1 = settings: Mycobacterium tuberculosis, read-out: MIC Mtb Praha 1
Mtb Praha 4 = settings: Mycobacterium tuberculosis, read-out: MIC Mtb Praha 4
Mtb Praha 131 = settings: Mycobacterium tuberculosis, read-out: MIC Mtb Praha 131
Mtb 234/2005 = settings: Mycobacterium tuberculosis, read-out: MIC Mtb 234/2005
Mtb 9449/2007 = settings: Mycobacterium tuberculosis, read-out: MIC Mtb 9449/2007
Mtb 7357/1998 = settings: Mycobacterium tuberculosis, read-out: MIC Mtb 7357/1998
Mtb 8666/2010 = settings: Mycobacterium tuberculosis, read-out: MIC Mtb 8666/2010

Compound | MIC (Mtb Praha 1; PRAHA1, 336 h) [µM] | MIC (Mtb Praha 1; PRAHA1, 504 h) [µM] | MIC (Mtb Praha 4; PRAHA4, 336 h) [µM] | MIC (Mtb Praha 4; PRAHA4, 504 h) [µM] | MIC (Mtb Praha 131; PRAHA131, 336 h) [µM] | MIC (Mtb Praha 131; PRAHA131, 504 h) [µM] | MIC (Mtb 234/2005; 234/2005, 336 h) [µM] | MIC (Mtb 234/2005; 234/2005, 504 h) [µM] | MIC (Mtb 9449/2007; 9449/2007, 336 h) [µM] | MIC (Mtb 9449/2007; 9449/2007, 504 h) [µM] | MIC (Mtb 7357/1998; 7357/1998, 336 h) [µM] | MIC (Mtb 7357/1998; 7357/1998, 504 h) [µM] | MIC (Mtb 8666/2010; 8666/2010, 336 h) [µM] | MIC (Mtb 8666/2010; 8666/2010, 504 h) [µM]
CCCCCNc1nnc(-c2cc([N+](=O)[O-])cc([N+](=O)[O-])c2)o1 [Compound 5e, 5-(3,5-Dinitrophenyl)-N-pentyl-1,3,4-oxadiazol-2-amine] | 0.125 (≈ 0.0402 µg/mL) | 0.25 (≈ 0.0803 µg/mL) | 0.125 (≈ 0.0402 µg/mL) | 0.5 (≈ 0.161 µg/mL) | 0.125 (≈ 0.0402 µg/mL) | 0.125 (≈ 0.0402 µg/mL) | 0.125 (≈ 0.0402 µg/mL) | 0.125 (≈ 0.0402 µg/mL) | 0.125 (≈ 0.0402 µg/mL) | 0.125 (≈ 0.0402 µg/mL) | 0.125 (≈ 0.0402 µg/mL) | 0.125 (≈ 0.0402 µg/mL) | 0.125 (≈ 0.0402 µg/mL) | 0.125 (≈ 0.0402 µg/mL)
CCCCCCNc1nnc(-c2cc([N+](=O)[O-])cc([N+](=O)[O-])c2)o1 [Compound 5f, 5-(3,5-Dinitrophenyl)-N-hexyl-1,3,4-oxadiazol-2-amine] | ≤ 0.03 | ≤ 0.03 | ≤ 0.03 | ≤ 0.03 | ≤ 0.03 | ≤ 0.03 | ≤ 0.03 | ≤ 0.03 | ≤ 0.03 | ≤ 0.03 | ≤ 0.03 | ≤ 0.03 | ≤ 0.03 | ≤ 0.03
CCCCCCCCCCCCNc1nnc(-c2cc([N+](=O)[O-])cc([N+](=O)[O-])c2)s1 [Compound 5s, 5-(3,5-Dinitrophenyl)-N-dodecyl-1,3,4-thiadiazol-2-amine] | 1 (≈ 0.436 µg/mL) | 1 (≈ 0.436 µg/mL) | 1 (≈ 0.436 µg/mL) | 1 (≈ 0.436 µg/mL) | 1 (≈ 0.436 µg/mL) | 1 (≈ 0.436 µg/mL) | 0.5 (≈ 0.218 µg/mL) | 1 (≈ 0.436 µg/mL) | 1 (≈ 0.436 µg/mL) | 2 (≈ 0.871 µg/mL) | 0.5 (≈ 0.218 µg/mL) | 1 (≈ 0.436 µg/mL) | 0.5 (≈ 0.218 µg/mL) | 1 (≈ 0.436 µg/mL)
CCCCCCCCCCCNc1nnc(-c2cc([N+](=O)[O-])cc([N+](=O)[O-])c2)o1 [Compound 5k, 5-(3,5-Dinitrophenyl)-N-undecyl-1,3,4-oxadiazol-2-amine] | 0.25 (≈ 0.101 µg/mL) | 0.5 (≈ 0.203 µg/mL) | 0.25 (≈ 0.101 µg/mL) | 0.5 (≈ 0.203 µg/mL) | 0.25 (≈ 0.101 µg/mL) | 0.5 (≈ 0.203 µg/mL) | 0.25 (≈ 0.101 µg/mL) | 0.5 (≈ 0.203 µg/mL) | 0.25 (≈ 0.101 µg/mL) | 0.5 (≈ 0.203 µg/mL) | 0.25 (≈ 0.101 µg/mL) | 0.5 (≈ 0.203 µg/mL) | 0.25 (≈ 0.101 µg/mL) | 0.5 (≈ 0.203 µg/mL)
CCCCCCCCCCCCNC(=S)NNC(=O)c1cc([N+](=O)[O-])cc([N+](=O)[O-])c1 [Compound 4s, 2-(3,5-Dinitrobenzoyl)-N-dodecylhydrazine-1-carbothioamide] | 2 (≈ 0.907 µg/mL) | 2 (≈ 0.907 µg/mL) | 2 (≈ 0.907 µg/mL) | 2 (≈ 0.907 µg/mL) | 2 (≈ 0.907 µg/mL) | 4 (≈ 1.81 µg/mL) | 2 (≈ 0.907 µg/mL) | 4 (≈ 1.81 µg/mL) | 2 (≈ 0.907 µg/mL) | 2 (≈ 0.907 µg/mL) | 1 (≈ 0.454 µg/mL) | 2 (≈ 0.907 µg/mL) | 1 (≈ 0.454 µg/mL) | 2 (≈ 0.907 µg/mL)
CCCCCCCCCCNc1nnc(-c2cc([N+](=O)[O-])cc([N+](=O)[O-])c2)o1 [Compound 5j, N-Decyl-5-(3,5-dinitrophenyl)-1,3,4-oxadiazol-2-amine] | 0.25 (≈ 0.0979 µg/mL) | 0.5 (≈ 0.196 µg/mL) | 0.25 (≈ 0.0979 µg/mL) | 0.5 (≈ 0.196 µg/mL) | 0.25 (≈ 0.0979 µg/mL) | 0.5 (≈ 0.196 µg/mL) | 0.25 (≈ 0.0979 µg/mL) | 0.5 (≈ 0.196 µg/mL) | 0.25 (≈ 0.0979 µg/mL) | 0.5 (≈ 0.196 µg/mL) | 0.25 (≈ 0.0979 µg/mL) | 0.5 (≈ 0.196 µg/mL) | 0.25 (≈ 0.0979 µg/mL) | 0.5 (≈ 0.196 µg/mL)
COc1ccc(CNc2nnc(-c3cc([N+](=O)[O-])cc([N+](=O)[O-])c3)s2)cc1 [Compound 8b, 5-(3,5-Dinitrophenyl)-N-(4-methoxybenzyl)-1,3,4-thiadiazol-2-amine] | ≤ 0.03 | ≤ 0.03 | ≤ 0.03 | ≤ 0.03 | ≤ 0.03 | ≤ 0.03 | ≤ 0.03 | ≤ 0.03 | ≤ 0.03 | ≤ 0.03 | ≤ 0.03 | ≤ 0.03 | ≤ 0.03 | ≤ 0.03
CCCCCCCCCNC(=O)NNC(=O)c1cc([N+](=O)[O-])cc([N+](=O)[O-])c1 [Compound 4i, 2-(3,5-Dinitrobenzoyl)-N-nonylhydrazine-1-carboxamide] | 1 (≈ 0.395 µg/mL) | 2 (≈ 0.791 µg/mL) | 1 (≈ 0.395 µg/mL) | 1 (≈ 0.395 µg/mL) | 1 (≈ 0.395 µg/mL) | 2 (≈ 0.791 µg/mL) | 1 (≈ 0.395 µg/mL) | 2 (≈ 0.791 µg/mL) | 1 (≈ 0.395 µg/mL) | 1 (≈ 0.395 µg/mL) | 1 (≈ 0.395 µg/mL) | 1 (≈ 0.395 µg/mL) | 1 (≈ 0.395 µg/mL) | 1 (≈ 0.395 µg/mL)
COc1ccc(CNc2nnc(-c3cc([N+](=O)[O-])cc([N+](=O)[O-])c3)o2)cc1 [Compound 7b, 5-(3,5-Dinitrophenyl)-N-(4-methoxybenzyl)-1,3,4-oxadiazol-2-amine] | ≤ 0.03 | ≤ 0.03 | ≤ 0.03 | ≤ 0.03 | ≤ 0.03 | ≤ 0.03 | ≤ 0.03 | 0.06 (≈ 0.0223 µg/mL) | ≤ 0.03 | ≤ 0.03 | ≤ 0.03 | ≤ 0.03 | ≤ 0.03 | ≤ 0.03
CCCCCCCCCNc1nnc(-c2cc([N+](=O)[O-])cc([N+](=O)[O-])c2)o1 [Compound 5i, 5-(3,5-Dinitrophenyl)-N-nonyl-1,3,4-oxadiazol-2-amine] | 0.125 (≈ 0.0472 µg/mL) | 0.125 (≈ 0.0472 µg/mL) | 0.125 (≈ 0.0472 µg/mL) | 0.125 (≈ 0.0472 µg/mL) | 0.06 (≈ 0.0226 µg/mL) | 0.06 (≈ 0.0226 µg/mL) | 0.125 (≈ 0.0472 µg/mL) | 0.125 (≈ 0.0472 µg/mL) | 0.06 (≈ 0.0226 µg/mL) | 0.06 (≈ 0.0226 µg/mL) | 0.125 (≈ 0.0472 µg/mL) | 0.125 (≈ 0.0472 µg/mL) | 0.06 (≈ 0.0226 µg/mL) | 0.06 (≈ 0.0226 µg/mL)
CCCCNc1nnc(-c2cc([N+](=O)[O-])cc([N+](=O)[O-])c2)o1 [Compound 5d, N-Butyl-5-(3,5-dinitrophenyl)-1,3,4-oxadiazol-2-amine] | 1 (≈ 0.307 µg/mL) | 1 (≈ 0.307 µg/mL) | 0.5 (≈ 0.154 µg/mL) | 1 (≈ 0.307 µg/mL) | 0.5 (≈ 0.154 µg/mL) | 1 (≈ 0.307 µg/mL) | 0.5 (≈ 0.154 µg/mL) | 1 (≈ 0.307 µg/mL) | 0.5 (≈ 0.154 µg/mL) | 0.5 (≈ 0.154 µg/mL) | 0.5 (≈ 0.154 µg/mL) | 1 (≈ 0.307 µg/mL) | 0.5 (≈ 0.154 µg/mL) | 0.5 (≈ 0.154 µg/mL)
CCCCCCCCCCCCNc1nnc(-c2cc([N+](=O)[O-])cc([N+](=O)[O-])c2)o1 [Compound 5l, 5-(3,5-Dinitrophenyl)-N-dodecyl-1,3,4-oxadiazol-2-amine] | 0.25 (≈ 0.105 µg/mL) | 0.5 (≈ 0.21 µg/mL) | 0.25 (≈ 0.105 µg/mL) | 0.5 (≈ 0.21 µg/mL) | 0.25 (≈ 0.105 µg/mL) | 0.5 (≈ 0.21 µg/mL) | 0.25 (≈ 0.105 µg/mL) | 0.5 (≈ 0.21 µg/mL) | 0.25 (≈ 0.105 µg/mL) | 0.5 (≈ 0.21 µg/mL) | 0.5 (≈ 0.21 µg/mL) | 0.5 (≈ 0.21 µg/mL) | 0.25 (≈ 0.105 µg/mL) | 0.5 (≈ 0.21 µg/mL)
CCCCCCCCCCCCCNc1nnc(-c2cc([N+](=O)[O-])cc([N+](=O)[O-])c2)o1 [Compound 5m, 5-(3,5-Dinitrophenyl)-N-tridecyl-1,3,4-oxadiazol-2-amine] | 0.125 (≈ 0.0542 µg/mL) | 0.125 (≈ 0.0542 µg/mL) | 0.06 (≈ 0.026 µg/mL) | 0.125 (≈ 0.0542 µg/mL) | 0.125 (≈ 0.0542 µg/mL) | 0.125 (≈ 0.0542 µg/mL) | 0.125 (≈ 0.0542 µg/mL) | 0.125 (≈ 0.0542 µg/mL) | 0.06 (≈ 0.026 µg/mL) | 0.125 (≈ 0.0542 µg/mL) | 0.25 (≈ 0.108 µg/mL) | 0.25 (≈ 0.108 µg/mL) | 0.06 (≈ 0.026 µg/mL) | 0.125 (≈ 0.0542 µg/mL)
CCCCCCCNc1nnc(-c2cc([N+](=O)[O-])cc([N+](=O)[O-])c2)o1 [Compound 5g, 5-(3,5-Dinitrophenyl)-N-heptyl-1,3,4-oxadiazol-2-amine] | 0.06 (≈ 0.021 µg/mL) | 0.06 (≈ 0.021 µg/mL) | 0.06 (≈ 0.021 µg/mL) | 0.06 (≈ 0.021 µg/mL) | 0.06 (≈ 0.021 µg/mL) | 0.06 (≈ 0.021 µg/mL) | 0.06 (≈ 0.021 µg/mL) | 0.06 (≈ 0.021 µg/mL) | ≤ 0.03 | 0.06 (≈ 0.021 µg/mL) | 0.06 (≈ 0.021 µg/mL) | 0.06 (≈ 0.021 µg/mL) | ≤ 0.03 | 0.06 (≈ 0.021 µg/mL)
CCCCCCCNC(=O)NNC(=O)c1cc([N+](=O)[O-])cc([N+](=O)[O-])c1 [Compound 4g, 2-(3,5-Dinitrobenzoyl)-N-heptylhydrazine-1-carboxamide] | 1 (≈ 0.367 µg/mL) | 2 (≈ 0.735 µg/mL) | 1 (≈ 0.367 µg/mL) | 1 (≈ 0.367 µg/mL) | 1 (≈ 0.367 µg/mL) | 2 (≈ 0.735 µg/mL) | 1 (≈ 0.367 µg/mL) | 2 (≈ 0.735 µg/mL) | 1 (≈ 0.367 µg/mL) | 1 (≈ 0.367 µg/mL) | 1 (≈ 0.367 µg/mL) | 1 (≈ 0.367 µg/mL) | 1 (≈ 0.367 µg/mL) | 1 (≈ 0.367 µg/mL)
CCCCCCCCNc1nnc(-c2cc([N+](=O)[O-])cc([N+](=O)[O-])c2)o1 [Compound 5h, 5-(3,5-Dinitrophenyl)-N-octyl-1,3,4-oxadiazol-2-amine] | 0.125 (≈ 0.0454 µg/mL) | 0.125 (≈ 0.0454 µg/mL) | 0.125 (≈ 0.0454 µg/mL) | 0.125 (≈ 0.0454 µg/mL) | 0.125 (≈ 0.0454 µg/mL) | 0.125 (≈ 0.0454 µg/mL) | 0.125 (≈ 0.0454 µg/mL) | 0.125 (≈ 0.0454 µg/mL) | 0.06 (≈ 0.0218 µg/mL) | 0.125 (≈ 0.0454 µg/mL) | 0.125 (≈ 0.0454 µg/mL) | 0.125 (≈ 0.0454 µg/mL) | 0.06 (≈ 0.0218 µg/mL) | 0.125 (≈ 0.0454 µg/mL)

Reference: publication PMC12121777 (PLOS One, 2025)
